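Briefly, cells in 96-well plates were exposed to five compound concentrations for 48 h, and endpoints were estimated by linear interpolation. GI50 marks 50% less growth. TGI is the concentration that stops growth completely.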
Assays:
Test in all cases: NCI tumour cell line growth inhibition, 48 h
OVCAR-4 ovarian = tested on: OVCAR-4 ovarian
COLO 205 colon = tested on: COLO 205 colon
HOP-62 NSCLC = tested on: HOP-62 NSCLC
CCRF-CEM leukemia = tested on: CCRF-CEM leukemia
SR leukemia = tested on: SR leukemia
ACHN renal = tested on: ACHN renal
OVCAR-5 ovarian = tested on: OVCAR-5 ovarian
MCF7 breast = tested on: MCF7 breast

SMILES	GI50 (OVCAR-4 ovarian) [µM]	TGI (OVCAR-4 ovarian) [µM]	GI50 (COLO 205 colon) [µM]	TGI (COLO 205 colon) [µM]	GI50 (HOP-62 NSCLC) [µM]	TGI (HOP-62 NSCLC) [µM]	GI50 (CCRF-CEM leukemia) [µM]	TGI (CCRF-CEM leukemia) [µM]	GI50 (SR leukemia) [µM]	TGI (SR leukemia) [µM]	GI50 (ACHN renal) [µM]	TGI (ACHN renal) [µM]	GI50 (OVCAR-5 ovarian) [µM]	TGI (OVCAR-5 ovarian) [µM]	GI50 (MCF7 breast) [µM]	TGI (MCF7 breast) [µM]
O=C(CCl)c1ccc([N+](=O)[O-])o1	1.73	3.32	1.73	3.72	7.58	17.6	0.932	2.51	0.406	1.81	1.68	3.26	2.48	5.3	1.87	5.82
CCOC(=O)c1c2c(n(CC(C)C)c1C)-c1nc[nH]c1C(=O)C2=O	12.7	25.3	18	32.3	19.1	34.2	4.78	16.7	0.384	2.15	14.2	27.2	–	–	16.3	29.9
COc1cc2nc(Cl)nc(Nc3cccc(C(=O)/C=C/c4ccccc4)c3)c2cc1OC	5.5	33.3	11.4	> 100	3.71	31.7	2.45	> 100	–	–	3.51	> 100	8.79	> 100	1.81	> 100
O=C(CCN1CCCC1)Nc1ccc2c(NCc3ccc(F)cc3)c3ccccc3nc2c1	0.45	1.84	0.396	1.65	0.611	2.62	0.463	13.4	0.349	1.72	0.483	1.87	0.48	2.01	0.314	1.31
CC12CCC(=O)C(O1)C1C(=O)c3cc4ccccc4cc3C(=O)C12 (stereo unspecified)	12.2	41.2	19.9	47.1	45	> 100	11.4	31	–	–	15.8	31.1	29.3	69.6	12.6	33
COc1ccc(Cn2nc(-c3cc(OC)c(OC)c(OC)c3)c3c2CCc2cnoc2-3)cc1OC	4.96	83.9	4.68	23.4	6.35	82.7	3.17	> 100	2.67	> 100	6.12	> 100	26.6	> 100	3.45	18.3
N#CSc1ncnc2nc[nH]c12	2.37	> 100	5.31	22	2.31	> 100	3.32	> 100	4.02	32.2	9.1	> 100	17.2	> 100	2.35	> 79.4
N#Cc1ncc(/N=C/c2ccc(N(CCCl)CCCl)cc2)s1	41.8	> 100	64	> 100	17.9	> 100	16	> 100	0.543	> 100	5.13	41.6	17.5	> 100	8.85	> 100
COc1cccc(OC(=O)c2ccccc2Nc2ccnc(C(F)(F)F)c2)c1	–	–	2.22	5.13	2.84	6.73	–	–	–	–	3.4	24.7	3.53	35.6	7.29	> 100
N#CC(C#N)=Cc1ccc(-c2ccc(-c3nc4ccccc4s3)cc2)o1	30.5	> 100	20.6	55.3	11.4	44.2	4.15	70.6	–	–	18.5	> 100	11.9	24.2	6.2	> 100
COc1cc2c(cc1OC)-c1ccc3cc4c(cc3c1N(CCN1CCCC1)C2)OCO4	0.858	6.49	0.299	1.56	0.376	1.93	0.186	4.36	0.0696	1.23	0.514	2.43	1.34	4.9	–	–
COc1ccc2c(c1)CCC1C2CCC2(C)C1CCC2(O)CNC(=O)CCCCC1CCSS1 (stereo unspecified)	6.92	45.9	6.14	> 100	25	> 100	1.59	4.33	–	–	53.6	> 100	> 100	> 100	10.3	40.8
C=CCC(N[C@H](CO)C(C)C)c1cn(C(=O)OCC)c2ccccc12 (stereo partly specified)	49.6	> 100	25.4	65.9	28.6	89.1	22.4	70.2	–	–	32.1	> 100	48.6	> 100	35	> 100
CN(C)CCCNC(=O)c1cc(NC(=O)CCNS(=O)(=O)c2ccc3c(c2)C(=O)c2ccccc2C3=O)cn1C	–	–	> 100	> 100	> 100	> 100	> 100	> 100	> 100	> 100	–	–	> 100	> 100	> 100	> 100
CCc1c(C)[nH]c(/C=C2\N=C(c3ccc[nH]3)C=C2OC)c1C	0.893	12.5	0.268	1.88	0.25	4.04	< 0.0257	2.11	–	–	0.316	2.19	0.413	7.3	0.4	6.93
O=C(O)[C@@H]1C2CC([C@@H]1C(=O)O)[C@H](N1C(=O)CCC1=O)[C@@H]2Br (stereo partly specified)	–	> 100	–	> 100	–	> 100	–	> 100	–	> 100	–	> 100	–	> 100	–	–

From PubChem BioAssay (NCI)
